Patent US20230049231A1 (priority 2019, published 2023)

Tests used:
Kv1.3 potassium channel = target: T1, Kv1.3 potassium channel (Homo sapiens, UniProt P22001); experiment: Kv1.3 potassium channel blocker activity, automated whole-cell patch clamp (Patchliner); type: cell-based; conditions: Kv1.3 potassium channel, whole-cell patch clamp
T1 construct: expressed in transfected cells
Outline: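 IC50 came from Hill-equation fits of peak and AUC currents from the final pulse at each concentration, normalized to compound-free control. Compounds applied consecutively at 30 nM to 100 μM (up to 0.3% DMSO) to Kv1.3-expressing CHO-K1 cells, P/4 leak subtraction. Pulses were +40 mV, 100 ms, from −90 mV holding, at 0.1 Hz on Patchliner.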

hERG channel = target: T2, hERG channel (Homo sapiens, UniProt Q12809); experiment: hERG electrophysiology, automated whole-cell patch clamp (Patchliner); type: cell-based; conditions: hERG channel, whole-cell patch clamp
T2 construct: expressed in transfected cells
T2 sequence (Q12809 whole entry): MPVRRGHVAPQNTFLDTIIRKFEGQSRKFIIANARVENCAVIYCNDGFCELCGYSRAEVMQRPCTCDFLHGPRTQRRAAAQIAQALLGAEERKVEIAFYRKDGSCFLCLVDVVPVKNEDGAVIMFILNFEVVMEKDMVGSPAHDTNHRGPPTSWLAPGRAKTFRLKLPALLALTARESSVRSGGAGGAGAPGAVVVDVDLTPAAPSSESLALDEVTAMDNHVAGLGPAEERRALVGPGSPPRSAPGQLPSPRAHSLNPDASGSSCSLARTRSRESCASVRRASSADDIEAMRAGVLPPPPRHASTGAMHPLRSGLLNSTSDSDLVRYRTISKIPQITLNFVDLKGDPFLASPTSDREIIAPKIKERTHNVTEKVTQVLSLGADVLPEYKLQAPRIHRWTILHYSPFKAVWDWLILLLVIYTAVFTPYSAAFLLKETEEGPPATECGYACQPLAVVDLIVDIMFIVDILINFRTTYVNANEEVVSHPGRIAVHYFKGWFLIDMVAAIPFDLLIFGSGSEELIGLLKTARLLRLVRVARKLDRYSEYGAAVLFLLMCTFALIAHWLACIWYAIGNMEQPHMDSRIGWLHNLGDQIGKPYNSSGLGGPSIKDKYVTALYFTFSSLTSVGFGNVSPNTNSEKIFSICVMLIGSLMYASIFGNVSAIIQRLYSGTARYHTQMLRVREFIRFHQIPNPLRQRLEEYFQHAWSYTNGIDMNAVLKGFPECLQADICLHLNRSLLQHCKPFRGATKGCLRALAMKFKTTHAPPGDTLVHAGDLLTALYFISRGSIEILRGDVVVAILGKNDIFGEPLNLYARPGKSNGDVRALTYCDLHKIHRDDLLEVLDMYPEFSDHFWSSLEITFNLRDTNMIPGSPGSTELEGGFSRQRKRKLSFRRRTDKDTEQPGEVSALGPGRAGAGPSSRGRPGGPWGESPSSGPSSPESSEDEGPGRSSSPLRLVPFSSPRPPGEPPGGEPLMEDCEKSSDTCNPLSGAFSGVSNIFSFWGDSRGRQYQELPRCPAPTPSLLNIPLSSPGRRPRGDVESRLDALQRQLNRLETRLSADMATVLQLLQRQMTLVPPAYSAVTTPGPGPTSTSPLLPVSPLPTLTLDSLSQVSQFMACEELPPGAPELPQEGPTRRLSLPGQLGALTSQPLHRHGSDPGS
Outline: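 Currents were recorded at 0.3 Hz from −80 mV, stepping to +20 mV then −50 mV (300 ms each), in stably transfected CHO-K1 cells. Concentrations (30 nM–100 μM, up to 0.3% DMSO) were added sequentially without washout. IC50 came from Hill fits of control-normalized AUC/peak of each train's final pulse.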

T1 sequence (P22001 whole entry): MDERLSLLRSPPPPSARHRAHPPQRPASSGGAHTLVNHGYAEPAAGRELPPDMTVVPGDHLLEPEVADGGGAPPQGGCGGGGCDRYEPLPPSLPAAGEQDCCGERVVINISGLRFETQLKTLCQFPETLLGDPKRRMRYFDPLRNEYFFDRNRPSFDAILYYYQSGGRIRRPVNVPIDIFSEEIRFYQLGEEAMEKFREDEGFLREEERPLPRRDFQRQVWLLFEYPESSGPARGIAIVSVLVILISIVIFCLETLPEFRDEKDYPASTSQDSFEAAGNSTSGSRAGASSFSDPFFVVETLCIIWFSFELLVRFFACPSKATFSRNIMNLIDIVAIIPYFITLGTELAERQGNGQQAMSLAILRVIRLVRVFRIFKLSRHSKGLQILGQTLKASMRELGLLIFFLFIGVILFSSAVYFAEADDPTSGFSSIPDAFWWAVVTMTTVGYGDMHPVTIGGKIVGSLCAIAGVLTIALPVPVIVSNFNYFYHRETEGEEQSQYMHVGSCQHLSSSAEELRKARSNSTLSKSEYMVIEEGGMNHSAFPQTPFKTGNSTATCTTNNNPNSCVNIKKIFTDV

`NC(=O)CC1OC[C@@H]2C[C@H](c3c(O)ccc(Cl)c3Cl)CCN2C1=O` (stereo partly drawn) [Compound 187, 2-[(8R,9aS)-8-(2,3-dichloro-6-hydroxyphenyl)-4-oxo-hexahydro-1H-pyrido[2,1-c][1,4]oxazin-3-yl]acetamide] was tested, and the IC50 (Kv1.3 potassium channel) was < 1 µM and the IC50 (hERG channel) was > 30 µM.
`CNC(=O)CC1OC[C@@H]2C[C@H](c3c(O)ccc(Cl)c3Cl)CCN2C1=O` (stereo partly drawn) [Compound 188, 2-[(8R,9aS)-8-(2,3-dichloro-6-hydroxyphenyl)-4-oxo-hexahydro-1H-pyrido[2,1-c] [1,4]oxazin-3-yl]-N-methylacetamide] was tested, and the IC50 (Kv1.3 potassium channel) was < 1 µM and the IC50 (hERG channel) was > 30 µM.
For `O=C1CC(N2CCOCC2)C[C@@H]2C[C@H](c3c(O)ccc(Cl)c3Cl)CN12` (stereo partly drawn) [Compound 195, (2R,8aS)-2-(2,3-dichloro-6-hydroxyphenyl)-7-(morpholin-4-yl)-hexahydro-1-indolizin-5-one], the IC50 (Kv1.3 potassium channel) was < 1 µM and the IC50 (hERG channel) was < 30 µM.
For `CC(=O)NC1CC(=O)N2C[C@@H](c3c(O)ccc(Cl)c3Cl)C[C@H]2C1` (stereo partly drawn) [Compound 206, N-[(2R,8aS)-2-(2,3-dichloro-6-hydroxyphenyl)-5-oxo-hexahydro-1H-indolizin-7-yl]acetamide], the IC50 (Kv1.3 potassium channel) was < 1 µM and the IC50 (hERG channel) was > 30 µM.
For `NCC1CC(=O)N2C[C@@H](c3c(O)ccc(Cl)c3Cl)C[C@H]2C1` (stereo partly drawn) [Compound 217, (2R,8aR)-7-(aminomethyl)-2-(2,3-dichloro-6-hydroxyphenyl)-hexahydro-1H-indolizin-5-one], the IC50 (Kv1.3 potassium channel) was < 1 µM and the IC50 (hERG channel) was > 30 µM.
`O=C1CC(O)(CO)C[C@@H]2C[C@H](c3c(O)ccc(Cl)c3Cl)CN12` (stereo partly drawn) [Compound 220, (2R,8aS)-2-(2,3-dichloro-6-hydroxyphenyl)-7-hydroxy-7-(hydroxymethyl)-hexahydroindolizin-5-one] was tested, and the IC50 (Kv1.3 potassium channel) was < 1 µM and the IC50 (hERG channel) was > 30 µM.
With `O=C1CCC[C@@H]2C[C@H](c3c(O)ccc(Cl)c3Cl)CN12` [Compound 223, (2R,8aR)-2-(2,3-dichloro-6-hydroxyphenyl)-hexahydro-1H-indolizin-5-one] the IC50 (Kv1.3 potassium channel) was < 1 µM and the IC50 (hERG channel) was > 30 µM.
With `O=C1C(O)C(O)C[C@@H]2C[C@H](c3c(O)ccc(Cl)c3Cl)CN12` (stereo partly drawn) [Compound 226, (2R,8aS)-2-(2,3-dichloro-6-hydroxyphenyl)-6,7-dihydroxy-hexahydro-1H-indolizin-5-one] the IC50 (Kv1.3 potassium channel) was < 1 µM and the IC50 (hERG channel) was > 30 µM.
For `CNC(=O)C1CC(=O)N2C[C@@H](c3c(O)ccc(Cl)c3Cl)C[C@H]2C1` (stereo partly drawn) [Compound 232, (2R,8aS)-2-(2,3-dichloro-6-hydroxyphenyl)-N-methyl-5-oxo-hexahydro-1H-indolizine-7-carboxamide], the IC50 (Kv1.3 potassium channel) was < 1 µM and the IC50 (hERG channel) was > 30 µM.
With `CN(C)CC1CC(=O)N2C[C@@H](c3c(O)ccc(Cl)c3Cl)C[C@H]2C1` (stereo partly drawn) [Compound 240, (2R,8aR)-2-(2,3-dichloro-6-hydroxyphenyl)-7-[(dimethylamino)methyl]-hexahydro-1H-indolizin-5-one] the IC50 (Kv1.3 potassium channel) was < 1 µM and the IC50 (hERG channel) was < 10 µM.
In the case of `O=C1CC(CN2CCNCC2)C[C@@H]2C[C@H](c3c(O)ccc(Cl)c3Cl)CN12` (stereo partly drawn) [Compound 241, (2R,8aR)-2-(2,3-dichloro-6-hydroxyphenyl)-7-(piperazin-1-ylmethyl)-hexahydro-1H-indolizin-5-one], the IC50 (Kv1.3 potassium channel) is reported as < 1 µM and the IC50 (hERG channel) is reported as > 30 µM.
For `O=C1CC(O)C[C@@H]2C[C@H](c3c(O)ccc(Cl)c3Cl)CCN12` (stereo partly drawn) [Compound 250, (8R,9aS)-8-(2,3-dichloro-6-hydroxyphenyl)-2-hydroxy-octahydroquinolizin-4-one], the IC50 (Kv1.3 potassium channel) was < 1 µM and the IC50 (hERG channel) was > 30 µM.
In the case of `O=C1OC[C@@H]2C[C@H](c3c(O)ccc(Cl)c3Cl)CN12` [Compound 251, (6R,7aS)-6-(2,3-dichloro-6-hydroxyphenyl)-tetrahydro-1H-pyrrolo[1,2-c][1,3]oxazol-3-one], the IC50 (Kv1.3 potassium channel) is reported as < 1 µM and the IC50 (hERG channel) is reported as < 30 µM.
With `CC1(C)OC(=O)N2C[C@@H](c3c(O)ccc(Cl)c3Cl)C[C@H]2C1O` (stereo partly drawn) [Compound 257, (4aS,6R)-6-(2,3-dichloro-6-hydroxyphenyl)-4-hydroxy-3,3-dimethylhexahydro-1H-pyrrolo[1,2-c][1,3]oxazin-1-one] the IC50 (Kv1.3 potassium channel) was < 1 µM and the IC50 (hERG channel) was > 30 µM.
